# Reference: patent publication US11006626B2, “Compounds for protection of cells” (Sulfateq B.V., priority 2012, dated 2021)
# What was measured:
# PRP platelets = PRP platelets stored with Sul 136, aggregation after stimulation with collagen; assay type: cell-based; conditions: 10 mM
# Procedure: […] • The color and coagulation properties were visually analysed. • The thrombocyte cells that survived were counted and it was evaluated whether the thrombocytes were aggregated. • It was evaluated if the thrombocytes still were able to function after stimulation by the addition of ADP or under influence of collagen in a 96 well plate. • The adhesion was evaluated, meaning the ability of the platelets to bind collagen in a 6 well plate preincubated with collagen. • Via an ELISA assay, it was evaluated whether thromboxane was secreted from the platelets. Thromboxane facilitates aggregation and is produced by activated blood platelets.
# (+means that the cells show aggregation, ++means strong aggregation, these platelets can thus be activated upon stimulation, −means no aggregation upon stimulation)
# apherese blood platelets = experiment: Apheresis platelets stored with Sul 136, platelet activation with ADP and TRAP by flow cytometry (CD62p); assay type: cell-based; set-up: Flow cytometry ADP / Flow cytometry TRAP: unit not given here; conditions: for Flow cytometry ADP / Flow cytometry P-selectin MFI / Flow cytometry TRAP: stored at 4° C. with Sul 136
# Procedure: 300 μM suspension of Sul 136 is added with a procedure, which keeps the bag content sterile and the Sul 136 is kept in suspension by frequent whirling and stored at 37° C. before it is added to the freshly harvested platelets. The Sul 136 suspension is added to three platelet bags directly from the bag. After addition, the content of the platelet bag is gently mixed. After 2 hours the first sample is drawn with a seal-docked sample bag. The sample bag is disconnected by welding and from this sample bag the samples are taken for hematology analyzing, aggregometer tests and the flow-cytometry tests. Swirling in the bag is reported by experience of the laboratory worker in the standard format. Platelets without Sul 136 put on a flatbed shaker and stored at room temperature were used as control. Another control is stored at 4° C. Platelet samples in which Sul 136 is added, are stored without shaking in a refrigerator at 4° C.
# Platelet activation was performed on a Beckman Coulter FC 500 flowcytometer using CD 41 PE, CD 62p FITC, IgG1 FITC/IgG1 PE antibodies of a Beckman Coulter kit.
# 40 μl Dilution buffer was brought in about 15 minutes to 37° C.; 10 μl IgG FITC/IgG PE+10 μl CD41 PE was added and mixed with Vortex, incubated 5 min at room temperature; 1000 μl cold HBSS buffer was added; measurement in flowcytometer was performed.
# 40 μl Dilution buffer was brought in about 15 minutes to 37° C.; 10 μl CD41 PE+5 μl CD62 FITC was added and mixed with Vortex, incubated during 5 min. at room temperature; 1000 μl cold HBSS buffer was added; measurement in flowcytometer was performed.
# 36 μl Dilution buffer+4 μl ADP was brought in about 15 minutes to 37° C.; 10 μl CD41 PE+5 μl CD62 FITC was added and mixed with Vortex, incubated during 5 min. at room temperature; 1000 μl cold HBSS buffer was added; measurement in flowcytometer was performed.
# 36 μl Dilution buffer+4 μl TRAP was brought in about 15 minutes to 37° C.; 10 μl CD41 PE+5 μl CD62 FITC was added and mixed with Vortex; incubateed during 5 min. at room temperature; 1000 μl cold HBSS buffer was added; measurement in flowcytometer was performed.
compound,measurement,setting,value
"Cc1c(C)c2c(c(C)c1O)CCC(C)(C(=O)N1CCN(CC(=O)O)CC1)O2 (racemic) [SUL - 136, 2-(4-(6-hydroxy-2,5,7,8-tetramethylchroman-2-carbonyl)piperazin-1-yl)acetic acid]",activity after stimulation with collagen,PRP platelets,showed still activity
same,Flow cytometry ADP,"apherese blood platelets; Donor 2, Day 1",2.12
same,Flow cytometry P-selectin MFI,"apherese blood platelets; Donor 2, Day 1",1.67 MFI
same,Flow cytometry TRAP,"apherese blood platelets; Donor 2, Day 1",1.88
same,Flow cytometry ADP,"apherese blood platelets; Donor 2, Day 2",2.53
same,Flow cytometry P-selectin MFI,"apherese blood platelets; Donor 2, Day 2",2.13 MFI
same,Flow cytometry TRAP,"apherese blood platelets; Donor 2, Day 2",2.35
same,Flow cytometry ADP,"apherese blood platelets; Donor 2, Day 3",3.21
same,Flow cytometry P-selectin MFI,"apherese blood platelets; Donor 2, Day 3",2.59 MFI
same,Flow cytometry TRAP,"apherese blood platelets; Donor 2, Day 3",2.76
same,Flow cytometry ADP,"apherese blood platelets; Donor 2, Day 5",3.19
same,Flow cytometry P-selectin MFI,"apherese blood platelets; Donor 2, Day 5",2.95 MFI
same,Flow cytometry TRAP,"apherese blood platelets; Donor 2, Day 5",3.16
same,Flow cytometry ADP,"apherese blood platelets; Donor 2, Day 8",3.08
same,Flow cytometry P-selectin MFI,"apherese blood platelets; Donor 2, Day 8",2.99 MFI
same,Flow cytometry TRAP,"apherese blood platelets; Donor 2, Day 8",3.22
same,Flow cytometry ADP,"apherese blood platelets; Donor 2, Day 10",2.83
same,Flow cytometry P-selectin MFI,"apherese blood platelets; Donor 2, Day 10",2.76 MFI
same,Flow cytometry TRAP,"apherese blood platelets; Donor 2, Day 10",2.96
same,Flow cytometry ADP,"apherese blood platelets; Donor 2, Day 12",2.62
same,Flow cytometry P-selectin MFI,"apherese blood platelets; Donor 2, Day 12",2.63 MFI
same,Flow cytometry TRAP,"apherese blood platelets; Donor 2, Day 12",2.73
same,Flow cytometry ADP,"apherese blood platelets; Donor 2, Day 19",1.99
same,Flow cytometry P-selectin MFI,"apherese blood platelets; Donor 2, Day 19",2.01 MFI
same,Flow cytometry TRAP,"apherese blood platelets; Donor 2, Day 19",2.14
same,Flow cytometry ADP,"apherese blood platelets; Donor 3, Day 1",2.71
same,Flow cytometry P-selectin MFI,"apherese blood platelets; Donor 3, Day 1",1.90 MFI
same,Flow cytometry TRAP,"apherese blood platelets; Donor 3, Day 1",2.08
same,Flow cytometry ADP,"apherese blood platelets; Donor 3, Day 2",3.49
same,Flow cytometry P-selectin MFI,"apherese blood platelets; Donor 3, Day 2",2.82 MFI
same,Flow cytometry TRAP,"apherese blood platelets; Donor 3, Day 2",3.62
same,Flow cytometry ADP,"apherese blood platelets; Donor 3, Day 3",4.96
same,Flow cytometry P-selectin MFI,"apherese blood platelets; Donor 3, Day 3",3.84 MFI
same,Flow cytometry TRAP,"apherese blood platelets; Donor 3, Day 3",4.42
same,Flow cytometry ADP,"apherese blood platelets; Donor 3, Day 5",4.84
same,Flow cytometry P-selectin MFI,"apherese blood platelets; Donor 3, Day 5",4.50 MFI
same,Flow cytometry TRAP,"apherese blood platelets; Donor 3, Day 5",5.04
same,Flow cytometry ADP,"apherese blood platelets; Donor 3, Day 8",4.91
same,Flow cytometry P-selectin MFI,"apherese blood platelets; Donor 3, Day 8",4.82 MFI
same,Flow cytometry TRAP,"apherese blood platelets; Donor 3, Day 8",5.24
same,Flow cytometry ADP,"apherese blood platelets; Donor 3, Day 10",4.25
same,Flow cytometry P-selectin MFI,"apherese blood platelets; Donor 3, Day 10",4.37 MFI
same,Flow cytometry TRAP,"apherese blood platelets; Donor 3, Day 10",5.04
same,Flow cytometry ADP,"apherese blood platelets; Donor 3, Day 12",3.84
same,Flow cytometry P-selectin MFI,"apherese blood platelets; Donor 3, Day 12",3.89 MFI
same,Flow cytometry TRAP,"apherese blood platelets; Donor 3, Day 12",4.20
same,Flow cytometry ADP,"apherese blood platelets; Donor 3, Day 19",2.37
same,Flow cytometry P-selectin MFI,"apherese blood platelets; Donor 3, Day 19",2.22 MFI
same,Flow cytometry TRAP,"apherese blood platelets; Donor 3, Day 19",2.01
same,Flow cytometry ADP,"apherese blood platelets; donor 1, Day 1",3.07
same,Flow cytometry P-selectin MFI,"apherese blood platelets; donor 1, Day 1",2.09 MFI
same,Flow cytometry TRAP,"apherese blood platelets; donor 1, Day 1",3.57
same,Flow cytometry ADP,"apherese blood platelets; donor 1, Day 2",3.28
same,Flow cytometry P-selectin MFI,"apherese blood platelets; donor 1, Day 2",3.04 MFI
same,Flow cytometry TRAP,"apherese blood platelets; donor 1, Day 2",3.78
same,Flow cytometry ADP,"apherese blood platelets; donor 1, Day 3",4.12
same,Flow cytometry P-selectin MFI,"apherese blood platelets; donor 1, Day 3",3.73 MFI
same,Flow cytometry TRAP,"apherese blood platelets; donor 1, Day 3",4.95
same,Flow cytometry ADP,"apherese blood platelets; donor 1, Day 5",4.20
same,Flow cytometry P-selectin MFI,"apherese blood platelets; donor 1, Day 5",4.12 MFI
same,Flow cytometry TRAP,"apherese blood platelets; donor 1, Day 5",5.55
same,Flow cytometry ADP,"apherese blood platelets; donor 1, Day 8",4.83
same,Flow cytometry P-selectin MFI,"apherese blood platelets; donor 1, Day 8",4.82 MFI
same,Flow cytometry TRAP,"apherese blood platelets; donor 1, Day 8",5.52
same,Flow cytometry ADP,"apherese blood platelets; donor 1, Day 10",4.46
same,Flow cytometry P-selectin MFI,"apherese blood platelets; donor 1, Day 10",4.48 MFI
same,Flow cytometry TRAP,"apherese blood platelets; donor 1, Day 10",5.52
same,Flow cytometry ADP,"apherese blood platelets; donor 1, Day 12",4.43
same,Flow cytometry P-selectin MFI,"apherese blood platelets; donor 1, Day 12",4.57 MFI
same,Flow cytometry TRAP,"apherese blood platelets; donor 1, Day 12",4.42
same,Flow cytometry ADP,"apherese blood platelets; donor 1, Day 19",2.74
same,Flow cytometry P-selectin MFI,"apherese blood platelets; donor 1, Day 19",2.92 MFI
same,Flow cytometry TRAP,"apherese blood platelets; donor 1, Day 19",2.76
same,flow cytometry tests,apherese blood platelets; stored at 4° C. with compound vs. platelets stored at room temperature,similar
